Literature values in patent publication US11583508B2, “Use of mitoxantrone liposome for treating non-Hodgkin's lymphoma” (CSPC ZHONGQI PHARMACEUTICAL TECHNOLOGY (SHIJIAZHUANG) CO., …, priority 2018, dated 2023).

Tested on: relapsed/refractory PTCL (RR-PTCL)
Conditions: monotherapy, second-line

| SMILES | Primary endpoint: (ORR, %) [%] |
| --- | --- |
| O=C(/C=C/c1cccc(S(=O)(=O)Nc2ccccc2)c1)NO [Belinostat] | 25.8 |
| C#CCC(Cc1cnc2nc(N)nc(N)c2n1)c1ccc(C(=O)N[C@@H](CCC(=O)O)C(=O)O)cc1 (some centres unmarked) [Pralatrexate] | 27 |
